Source: patent publication US8962265B2, “Mutant parasites for use as vaccines and platforms for screening for compounds” (Indiana University Research and Technology Corp., priority 2010, dated 2015)

Tested on: TgIF2α
Test: Western blot of TgIF2α phosphorylation
Type: cell-based, Toxoplasma gondii
Details: wild-type parasites treated with the ionophore
Protocol: In order to confirm that the TgIF2α-S71A clone could not be phosphorylated under normal physiological condition, a Western blot of lysates from parasites treated with the ionophore A23187 was carried out using antisera that specifically recognizes TgIF2α which is phosphorylated at ser-71 or total TgIF2α protein (Narasimhan et al., 2008b; Sullivan Jr. et al., 2004b). Referring now to FIG. 1C, equal amounts of protein lysates from WT or TgIF2α-S71A tachyzoites were resolved on a 4-12% polyacrylamide gel and transferred to a membrane for immunoblotting with antibody that specifically recognizes TgIF2α phosphorylated at ser-71 (TgIF2α-P) or total TgIF2α protein. […]
Next addressed was whether TgIF2K-D is required for induced TgIF2α phosphorylation when the parasite is outside of the host cell. Referring now to FIG. 9A, TgIF2α phosphorylation was analyzed by separating cell lysates via denaturing SDS-PAGE, followed by western blotting using antibodies to total TgIF2α or phosphorylated TgIF2α (TgIF2α˜P). […]
Phosphorylation of TgIF2α was monitored by Western blotting performed in accordance with standard methods. […]
Western blot analyses of TgIF2α phosphorylation were carried out as previously described. […] HA-tagged proteins were detected by western blot analyses after resolving parasite lysate on a 3-8% Tris-acetate polyacrylamide gradient gel. […]

For `CNc1ccc2oc(C[C@H]3O[C@@]4(CC[C@H]3C)O[C@H]([C@H](C)C(=O)c3ccc[nH]3)[C@H](C)C[C@H]4C)nc2c1C(=O)O` [A23187], the “induction of TgIF2α phosphorylation” value was “potent inducer”.
